# Assay results published in patent US9597323B2, “Aminoester derivatives” (CHIESI FARMACEUTICI S.p.A., priority 2015, dated 2017).
# Where two headings read alike, the source gives them in different places.
# Assays:
# Human M3 receptor = target: T1, Human M3 receptor (Homo sapiens, UniProt P20309); test: M3 Receptor radioligand binding assay; details: for Ki: calculated from IC50 by Cheng and Prusoff equation
# T1 construct: purchased Perkin Elmer
# Description: M3 Receptor Radioligand Binding Assay:
# The assay is carried out in 96-well polypropylene plates in a volume of 250 μl. […] The final assay concentration of DMSO is 0.5% (v/v). The plates are sealed and incubated for 2 h at room temperature on an orbital shaker (slow speed). Membranes are harvested onto 96-well unifilter GF/C filter plates pre-treated with 0.5% polyethyleneimine (v/v), using a filter manifold, washed four times with 200 μl of assay buffer. The plates are dried before addition of 50 μl of microscint-0, sealed then read in a Trilux Microbeta scintillation counter. IC50 values are determined from competition curves using a non-linear curve fitting program. Ki values are calculated from IC50 values by the Cheng and Prusoff equation.
# Human recombinant PDE4B2 = Human recombinant PDE4B2 (Homo sapiens, UniProt Q07343); test: PDE4B2 HTRF assay; assay type: biochemical
# Description: PDE4B2 activity is detected using the LANCE Ultra cAMP homogeneous time resolved fluorescence resonance energy transfer (TR-FRET) assay from Perkin Elmer. The assay is based on the competition between the europium (Eu) chelate-labeled cAMP tracer and sample cAMP for binding sites on cAMP-specific monoclonal antibodies (mAb) labelled with the ULight™ dye. The assay is carried out in 384-well low volume plates in a volume of 10 μl. Human recombinant PDE4B2 (80 pM) is incubated for 2 h with 3 nM cAMP in buffer containing 1×HBSS, 5 mM HEPES, 3 mM MgCl2, 0.1% BSA, pH 7.4 with or without test compounds. The enzymatic reactions are efficiently stopped by the addition of 500 μM IBMX present in the combined Stop/Detection buffer containing europium (Eu) chelate-labeled cAMP tracer and cAMP-specific monoclonal antibodies (mAb) labelled with the ULight™ dye. […] IC50 values are determined from competition curves using a non-linear curve fitting program.
# [1] = system: Cch-evoked bronchoconstriction; test: Bronchospasm, percentage of inhibition (Cch-induced bronchoconstriction in rats); assay type: in vivo, rat; details: for inhibition at 16 h: 16 h after intratracheal administration of the sub-maximal inhibition dose; for sub-maximal inhibition Dose [inhibition at 1 h]: dose producing about 80% inhibition of the bronchospasm after 1 h, intratracheal
# Description: Protocol of Bronchospasm-Percentage of Inhibition Animals Male CD Sprague Dawley rats (220-250 g) were purchased from Charles River Laboratories Italy (Calco, Lecco). Prior to use animals were acclimated for at least 5 days to the local vivarium conditions (room temperature: 20-24° C.; relative humidity: 40-70%), having free access to standard rat chow and softened tap water. All the procedures were performed in animal operating rooms according to ethical guidelines for the conduct of animal research (D. L.vo 116/92). […] Animals were anaesthetized with Urethane (1.2 g/kg, i.p.) and a laryngoscope was moved forward into the mouth to visualize the trachea and guide the insertion of the tip of a custom made small diameter cannula directly into the trachea and located 1-2 mm above the bifurcation. […] The target concentration was obtained by dilution of the DMSO stock in saline. Test compounds were instilled locally into the trachea in a volume of 125 μl. Experimental Procedure In order to assess the residual inhibitory activity of test compounds at 1 to 16 hours after their administration, rats were surgically prepared. In order to assess the Cch-induced bronchoconstriction in rats, the infusion of physiological solution was stopped and the bronchospastic agent injected into the jugular vein using the same cannula. Soon after washing the cannula with saline to ensure the complete administration of the bronchoconstrictor agent, the saline infusion was started again. Body temperature was kept constant at 37° C. by a heated blanket. The trachea was cannulated and the lungs were ventilated artificially with a small animal constant volume ventilator (rodent ventilator mod. 7025, Ugo Basile, Comerio, Varese, Italy) at a frequency of 80 strokes/min and at a tidal volume of 2.5 ml/kg. To avoid spontaneous breathing, the animals were injected intravenously (i.v.) with pancuronium bromide (2 mg/kg). Bronchoconstriction was induced by the i.v. injection of Cch 50 μg/kg. In control experiments, repeated injections of this dose produced reproducible short-lasting (1-2 min duration) bronchospasms. Bronchoconstriction, quantified as a reduction of tidal volume, was evaluated according to the method described by Konzett & Roessler in Konzett H. and Roessler R. (1940). Versuchanornungzu untersuchungen […]. Arch. Exp. Path. Pharmak.; 195:71-74, which is incorporated herein by reference in its entirety. Systemic blood pressure and changes in airway resistance were monitored with a digital pressure transducer connected to a bridge amplifier (PowerLab; Ugo Basile, Italy) and recorded using Chart 5 software (Ugo Basile, Italy). […] The effect of test compounds was expressed as % inhibition of Cch-evoked bronchoconstriction in time-matched, vehicle-treated, animals (controls).
# COPD patients = details: cited from earlier work
# [2] = patients with severe disease, frequent exacerbations and mucus hypersecretion
# Sequence of Human recombinant PDE4B2 (Q07343 1-564 isoform Q07343-2): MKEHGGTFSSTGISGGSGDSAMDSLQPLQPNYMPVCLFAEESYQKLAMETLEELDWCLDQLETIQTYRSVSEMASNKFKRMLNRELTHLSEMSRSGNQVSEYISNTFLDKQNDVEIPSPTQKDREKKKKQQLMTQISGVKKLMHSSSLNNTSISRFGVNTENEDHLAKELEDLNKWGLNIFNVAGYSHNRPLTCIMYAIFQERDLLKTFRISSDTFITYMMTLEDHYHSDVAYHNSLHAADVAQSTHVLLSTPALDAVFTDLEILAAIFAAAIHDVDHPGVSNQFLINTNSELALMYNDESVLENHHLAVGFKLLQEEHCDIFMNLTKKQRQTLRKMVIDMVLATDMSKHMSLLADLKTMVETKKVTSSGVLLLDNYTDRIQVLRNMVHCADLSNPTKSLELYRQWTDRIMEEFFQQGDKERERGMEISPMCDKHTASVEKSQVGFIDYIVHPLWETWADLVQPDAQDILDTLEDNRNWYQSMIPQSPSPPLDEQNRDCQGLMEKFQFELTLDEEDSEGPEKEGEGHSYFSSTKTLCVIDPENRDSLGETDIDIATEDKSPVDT
# T1 sequence (P20309 whole entry): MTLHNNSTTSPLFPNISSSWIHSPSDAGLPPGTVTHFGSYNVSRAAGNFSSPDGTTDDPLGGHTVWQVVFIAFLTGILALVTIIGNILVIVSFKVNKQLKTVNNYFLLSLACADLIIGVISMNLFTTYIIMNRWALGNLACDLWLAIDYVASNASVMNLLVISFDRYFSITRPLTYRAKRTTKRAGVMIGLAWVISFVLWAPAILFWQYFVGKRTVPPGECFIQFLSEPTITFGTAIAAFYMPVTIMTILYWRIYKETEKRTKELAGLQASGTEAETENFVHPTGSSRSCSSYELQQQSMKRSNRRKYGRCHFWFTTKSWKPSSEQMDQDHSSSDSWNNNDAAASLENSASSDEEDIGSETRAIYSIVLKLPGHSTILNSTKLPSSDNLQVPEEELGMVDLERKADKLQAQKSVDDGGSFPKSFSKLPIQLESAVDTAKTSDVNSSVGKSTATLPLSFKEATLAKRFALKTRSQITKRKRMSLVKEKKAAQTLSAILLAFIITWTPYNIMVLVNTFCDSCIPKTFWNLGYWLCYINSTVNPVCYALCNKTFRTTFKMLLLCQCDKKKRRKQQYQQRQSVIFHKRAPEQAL
smiles,measurement,setting,value
"COc1ccc([C@H](Cc2c(Cl)c[n+]([O-])cc2Cl)OC(=O)c2cccc(CNC(C(=O)OCC3CCN(C)CC3)c3ccccc3)c2)cc1OC (mixture of isomers) [Example 1, [(1S)-2-(3,5-dichloro-1-oxido-pyridin-1-ium-4-yl)-1-(3,4-dimethoxyphenyl)ethyl] 3-[[[2-[(1-methyl-4-piperidyl)methoxy]-2-oxo-1-phenyl-ethyl]amino]methyl]benzoate]",IC50,Human M3 receptor; read-out: M3 IC50 activity,1 to 10 nM
same,IC50,Human recombinant PDE4B2,< 1 nM
"COc1ccc([C@H](Cc2c(Cl)c[n+]([O-])cc2Cl)OC(=O)c2ccc(CNC(C(=O)OCC3CCN(C)CC3)c3ccccc3)cc2)cc1OC (single isomer, unassigned) [Example 2]",IC50,Human M3 receptor; read-out: M3 IC50 activity,1 to 10 nM
same,IC50,Human recombinant PDE4B2,1 to 10 nM
"COc1ccc([C@H](Cc2c(Cl)c[n+]([O-])cc2Cl)OC(=O)c2ccc(CNC(C(=O)OC3CCN(C)CC3)c3ccccc3)cc2)cc1OC (single isomer, unassigned) [Example 7C, reference compound]",inhibition at 16 h,[1],<10%
same,sub-maximal inhibition Dose [inhibition at 1 h],[1],3 nmol/kg
same,Ki,Human M3 receptor,0.09 nM
same,IC50,Human M3 receptor; read-out: M3 IC50,0.17 nM
"COc1ccc([C@H](Cc2c(Cl)c[n+]([O-])cc2Cl)OC(=O)c2ccc(CNC(C(=O)OCC3CCN(C)CC3)c3ccccc3)cc2)cc1OC (single isomer, unassigned) [Example 7]",inhibition at 16 h,[1],>90%
same,sub-maximal inhibition Dose [inhibition at 1 h],[1],30 nmol/kg
same,Ki,Human M3 receptor,0.45 nM
same,IC50,Human M3 receptor; read-out: M3 IC50,0.9 nM
same,IC50,Human M3 receptor; read-out: M3 IC50 activity,< 1 nM
same,IC50,Human recombinant PDE4B2,1 to 10 nM
"COc1ccc([C@H](Cc2c(Cl)c[n+]([O-])cc2Cl)OC(=O)c2cccc(CNC(C(=O)OCC3CCN(C)CC3)c3ccccc3)c2)cc1OC (stereo partly drawn) [Example 5, [(1S)-2-(3,5-dichloro-1-oxido-pyridin-1-ium-4-yl)-1-(3,4-dimethoxyphenyl)ethyl] 3-[[[2-[(1-methyl-4-piperidyl)-methoxy]-2-oxo-1-phenyl-ethyl]amino]methyl]benzoate]",IC50,Human M3 receptor; read-out: M3 IC50 activity,1 to 10 nM
same,IC50,Human recombinant PDE4B2,1 to 10 nM
"COc1ccc([C@H](Cc2c(Cl)c[n+]([O-])cc2Cl)OC(=O)c2ccc(CNC(C(=O)OCC3CCN(C)CC3)c3cccc(O)c3)cc2)cc1OC (stereo partly drawn) [Example 11, [(1S)-2-(3,5-dichloro-1-oxido-pyridin-1-ium-4-yl)-1-(3,4-dimethoxyphenyl)ethyl] 4-[[[1-(3-hydroxyphenyl)-2-[(1-methyl-4-piperidyl)-methoxy]-2-oxo-ethyl]amino]methyl]benzoate]",IC50,Human M3 receptor; read-out: M3 IC50 activity,1 to 10 nM
same,IC50,Human recombinant PDE4B2,1 to 10 nM
O=C(Nc1c(Cl)cncc1Cl)c1ccc(OC(F)F)c(OCC2CC2)c1 [roflumilast],reduction of numbers of neutrophils in sputum,"COPD patients; COPD patients, oral, over four weeks",36%
same,improvement of FEV 1,COPD patients; [2],approximately 50 mL
same,reduction of exacerbation,COPD patients; [2],about 15%
